Broadly, the IC50 is the concentration needed to halve the response being measured. Usually inhibition stands for the drop in the measured response relative to a control, in per cent. As a reminder, the bioavailability is dose-corrected exposure relative to a reference, in per cent. A higher bioavailability goes with good availability. In general, half-life refers to the time needed for the level to fall by half in the phase considered. A higher half-life goes with slow decline. The Cmax is the peak of the concentration-time curve.

Like-named read-outs stand apart in the source and are kept apart here.

Data set [1] deals with T1, HDAC1 (Homo sapiens (Human), UniProt Q13547). Briefly: IC50 values of comparison compounds B-F (Table 1B). The conditions noted are these: comparison compound C, source not stated. It counts as biochemical. An excerpt: (§1) [drawing 62] (see e.g., WO 2015/058106; Fluorescent-intensity-based enzymatic assay, multiple runs; duplicates);
Data set [2] addresses T2, HDAC10 (Homo sapiens (Human), UniProt Q969S8). Briefly: IC50 values of comparison compounds B-F (Table 1B). The conditions noted are these: comparison compound C, source not stated. It counts as biochemical.
Description: as §1

Data set [3] concerns the target T3, HDAC11 (Homo sapiens (Human), UniProt Q96DB2). Briefly: IC50 values of comparison compounds B-F (Table 1B). It counts as biochemical. The conditions noted are these: comparison compound C, source not stated.
Description: as §1

The target in data set [4] is T4, HDAC2 (Homo sapiens (Human), UniProt Q92769). Briefly: IC50 values of comparison compounds B-F (Table 1B). The note with it: comparison compound C, source not stated. It counts as biochemical.
Description: as §1

The target of data set [5] is T5, HDAC3 (Homo sapiens (Human), UniProt O15379). In words: IC50 values of comparison compounds B-F (Table 1B). The note with it: comparison compound C, source not stated. It counts as biochemical.
Description: as §1

In data set [6] the target is T6, HDAC4 (Homo sapiens (Human), UniProt P56524). Briefly: IC50 values of comparison compounds B-F (Table 1B). It counts as biochemical. The note with it: comparison compound C, source not stated.
Description: as §1

The target in data set [7] is T7, HDAC5 (Homo sapiens (Human), UniProt Q9UQL6). In words: IC50 values of comparison compounds B-F (Table 1B). It counts as biochemical. The note with it: comparison compound C, source not stated.
Description: as §1

Data set [8] addresses T8, HDAC8 (Homo sapiens (Human), UniProt Q9BY41). Briefly: IC50 values of comparison compounds B-F (Table 1B). It counts as biochemical. The note with it: comparison compound C, source not stated.
Description: as §1

Data set [9] addresses T9, HDAC9 (Homo sapiens (Human), UniProt Q9UKV0). Briefly: IC50 values of comparison compounds B-F (Table 1B). It counts as biochemical. The conditions noted are these: comparison compound C, source not stated.
Description: as §1
Target sequence in this assay (Q9UKV0 whole entry, species assumed): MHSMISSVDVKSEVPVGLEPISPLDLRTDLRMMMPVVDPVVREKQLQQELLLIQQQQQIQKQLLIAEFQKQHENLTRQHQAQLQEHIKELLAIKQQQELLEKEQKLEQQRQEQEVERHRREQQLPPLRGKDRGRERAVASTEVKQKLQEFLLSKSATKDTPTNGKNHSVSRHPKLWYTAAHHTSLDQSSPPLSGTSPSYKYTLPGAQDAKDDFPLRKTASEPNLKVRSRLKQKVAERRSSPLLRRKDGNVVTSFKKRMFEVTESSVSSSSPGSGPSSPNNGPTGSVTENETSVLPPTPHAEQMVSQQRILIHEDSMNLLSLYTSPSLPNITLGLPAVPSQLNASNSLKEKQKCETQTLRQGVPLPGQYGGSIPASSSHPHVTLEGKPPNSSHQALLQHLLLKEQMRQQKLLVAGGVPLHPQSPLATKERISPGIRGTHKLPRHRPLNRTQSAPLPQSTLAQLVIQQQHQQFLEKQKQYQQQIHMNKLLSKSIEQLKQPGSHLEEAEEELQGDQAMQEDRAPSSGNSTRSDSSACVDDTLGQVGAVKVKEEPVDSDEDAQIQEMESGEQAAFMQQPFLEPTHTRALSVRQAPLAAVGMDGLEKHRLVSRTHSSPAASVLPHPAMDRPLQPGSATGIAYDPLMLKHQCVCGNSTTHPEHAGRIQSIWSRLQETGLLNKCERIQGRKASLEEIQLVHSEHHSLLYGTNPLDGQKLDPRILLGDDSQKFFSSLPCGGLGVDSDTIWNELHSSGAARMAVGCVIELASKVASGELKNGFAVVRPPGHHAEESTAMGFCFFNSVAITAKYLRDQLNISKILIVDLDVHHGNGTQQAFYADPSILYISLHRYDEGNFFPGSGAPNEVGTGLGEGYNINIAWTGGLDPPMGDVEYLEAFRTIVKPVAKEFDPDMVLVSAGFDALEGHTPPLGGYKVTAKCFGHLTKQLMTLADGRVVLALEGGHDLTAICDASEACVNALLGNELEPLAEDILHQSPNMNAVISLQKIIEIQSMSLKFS

In data set [10] the target is T10, HDAC6 (Homo sapiens (Human), UniProt Q9UBN7). The note with it: read-out: HDAC6 IC50; comparison compound C, source not stated.
The target in data set [11] is T1, HDAC1. In words: IC50 assay, BPS Biosciences fluorescence assay. It counts as biochemical.
The target in data set [12] is T4, HDAC2. Briefly: IC50 assay, BPS Biosciences fluorescence assay. It counts as biochemical.
Data set [13] deals with T5, HDAC3. In words: IC50 assay, BPS Biosciences fluorescence assay. It counts as biochemical.
Data set [14] addresses T2, HDAC10. Briefly: IC50 assay, BPS Biosciences fluorescence assay. It counts as biochemical.
The target in data set [15] is T1, HDAC1. Briefly: IC50 assay by Nanosyn (Caliper microfluidics mobility shift detection). The note with it: IC50 measured by Nanosyn. It counts as biochemical. The protocol: (§2) IC50 measurements were conducted by BPS Biosciences (Table 1) or by Nanosyn (Table 1A) with an established fluorescence assay. […] A=Martinostat (Caliper (microfluidics mobility shift detection) by Nanosyn (same run, duplicates));

For data set [16], the target named is T2, HDAC10. Described as above. It counts as biochemical. The note with it: IC50 measured by Nanosyn. The protocol: as §2
The target of data set [17] is T4, HDAC2. The description is as above. It counts as biochemical. The conditions noted are these: IC50 measured by Nanosyn. As to the method:
as §2

The target of data set [18] is T5, HDAC3. Described as above. It counts as biochemical. The note with it: IC50 measured by Nanosyn. As to the method:
as §2

Data set [19] in a line: Brain penetrance comparison. The note with it: in vivo.
Data set [20] deals with Human iPSC-derived neural progenitor cells. In words: Acetylation level assay (Western blot). It counts as cell-based. The note with it: 6 h at 37° C. (A western blot detects proteins with antibodies after separation by electrophoresis.)
Data set [21] has as its target HDAC6 (Rattus norvegicus (Rat), UniProt A0A8I6GM68). In words: Autoradiography competition with radiolabeled Example 2 on rat brain slices. It counts as binding, Sprague-Dawley rat. The note with it: blocking compound at 1 μM. As to the method:
Sagittal slices of Sprague-Dawley rat brains were sectioned (10 μm) with a cryostat (Thermo Scientific HM550) and mounted onto ColorFrost Plus microscope slides (Fisher Scientific 12-550-18) and stored at −20° C. […] After 15 min, 50 μCi of the radiolabeled compound of Example 2 was added to each bath. After 15 minutes, all slides were washed by dipping 10× into buffer and subsequently submerged in 50 mL baths of buffer at 4° C. for 5 minutes. The slides were dried at 35° C. in a vacuum chamber. A phosphorus screen (Perkin Elmer 7001723) was exposed with the slides for 45 minutes and subsequently imaged with a Cyclone Plus Storage Phosphor (Perkin Elmer) detector. ImageJ was used to apply a Gaussian blur (3.0 radius) smoothing and a lookup table (Royal) with equivalent thresholds for brightness was applied. Raw intensity values from gray and white matter were quantified with the ImageJ measurement tool.

Data set [22] is described as follows: PET/CT imaging in rats. It counts as in vivo, Sprague-Dawley rats. As to the method:
8 male Sprague-Dawley rats (Charles River Laboratories) were used for PET imaging. […] For intravenous administration, a catheter with an extension line was placed in a lateral tail vein. Each animal received a bolus injection of either vehicle (1:1:8 DMSO/Tween80/saline) or blocking agent in solution (1 mg/kg, 1 mg/mL in 1:1:8 DMSO/Tween80/saline) immediately prior to injection of the radiotracer.
After injection of a radiotracer bolus ([…] Example 2) a 90 min dynamic PET scan was acquired in pairs for all animals. PET scans were performed on a GammaMedica Triumph PET/CT/SPECT scanner, corrected for attenuation with a μ-map derived from the corresponding CT image, which was acquired immediately following the PET scan. The dynamic PET data was binned into 38 timeframes (8×15 s, 8×1 min, 10×2 min, 12×5) and reconstructed individually via an iterative MLEM (maximum likelihood expectation maximization) algorithm in 16 iterations.
PET images were to the CT image acquired from the same animal using AMIDE Data sets were cropped and all further image analysis was conducted using PMOD 3.3 (PMOD Technologies, Zurich, Switzerland). For maximum consistency, the data were coregistered to the Schiffer Px Rat rat brain template and data was derived from a whole brain VOI (volumes of interest) for time activity curves.

The conditions of data set [23]: male, C57BL/6, mouse, in vivo, po, 5 mg/kg.
Data set [24] in a line: in vivo. The conditions noted are these: C57BL/6, mouse.
Data set [25] is described as follows: in vitro. The note with it: rat, microsomes.
The nature of data set [26]: in vitro. The note with it: mouse, microsomes.
Data set [27] is described as follows: Microsome stability. The conditions noted are these: human, microsomes.
Data set [28] can be described thus: Hepatocyte stability. The conditions noted are these: human, hepatocytes.
For data set [29], the system named is DiscoverX Safety47 panel: 24 GPCRs, 2 nuclear hormone receptors, 3 neurotransmitter transporters, 8 ion channels, 4 kinases, 6 other enzymes. Briefly: Safety (DiscoverX Safety47 Panel). The note with it: at 10 μM; 78 assays.
For data set [30], the target named is T6, HDAC4. Briefly: IC50 assay, BPS Biosciences fluorescence assay. It counts as biochemical.
In data set [31] the target is T7, HDAC5. Briefly: IC50 assay, BPS Biosciences fluorescence assay. It counts as biochemical.
Data set [32] concerns the target T10, HDAC6. In words: IC50 assay, BPS Biosciences fluorescence assay. It counts as biochemical.
The target of data set [33] is T11, HDAC7 (Homo sapiens (Human), UniProt Q8WUI4). In words: IC50 assay, BPS Biosciences fluorescence assay. It counts as biochemical.
The target in data set [34] is T8, HDAC8. Briefly: IC50 assay, BPS Biosciences fluorescence assay. It counts as biochemical.
Data set [35] has as its target T9, HDAC9. In words: IC50 assay, BPS Biosciences fluorescence assay. It counts as biochemical.
Target sequence in this assay (Q9UKV0 whole entry): as the sequence (Q9UKV0 whole entry, species assumed) above
Data set [36] deals with T3, HDAC11. In words: IC50 assay, BPS Biosciences fluorescence assay. It counts as biochemical.
The target in data set [37] is T6, HDAC4. In words: IC50 assay by Nanosyn (Caliper microfluidics mobility shift detection). It counts as biochemical. The note with it: IC50 measured by Nanosyn.
Data set [38] concerns the target T7, HDAC5. Described as above. It counts as biochemical. The conditions noted are these: IC50 measured by Nanosyn.
Data set [39] concerns the target T10, HDAC6. Described as above. It counts as biochemical. The note with it: IC50 measured by Nanosyn.
Data set [40] addresses T11, HDAC7. The description is as above. It counts as biochemical. The note with it: IC50 measured by Nanosyn.
Data set [41] deals with T8, HDAC8. Described as above. It counts as biochemical. The note with it: IC50 measured by Nanosyn.
Data set [42] addresses T9, HDAC9. Described as above. It counts as biochemical. The conditions noted are these: IC50 measured by Nanosyn.
Target sequence in this assay (Q9UKV0 whole entry): as the sequence (Q9UKV0 whole entry, species assumed) above
The target in data set [43] is T3, HDAC11. The data set is described as above. It counts as biochemical. The note with it: IC50 measured by Nanosyn.
Setting [44] is: BPS Biosciences fluorescence assay.

T10 sequence (Q9UBN7 whole entry): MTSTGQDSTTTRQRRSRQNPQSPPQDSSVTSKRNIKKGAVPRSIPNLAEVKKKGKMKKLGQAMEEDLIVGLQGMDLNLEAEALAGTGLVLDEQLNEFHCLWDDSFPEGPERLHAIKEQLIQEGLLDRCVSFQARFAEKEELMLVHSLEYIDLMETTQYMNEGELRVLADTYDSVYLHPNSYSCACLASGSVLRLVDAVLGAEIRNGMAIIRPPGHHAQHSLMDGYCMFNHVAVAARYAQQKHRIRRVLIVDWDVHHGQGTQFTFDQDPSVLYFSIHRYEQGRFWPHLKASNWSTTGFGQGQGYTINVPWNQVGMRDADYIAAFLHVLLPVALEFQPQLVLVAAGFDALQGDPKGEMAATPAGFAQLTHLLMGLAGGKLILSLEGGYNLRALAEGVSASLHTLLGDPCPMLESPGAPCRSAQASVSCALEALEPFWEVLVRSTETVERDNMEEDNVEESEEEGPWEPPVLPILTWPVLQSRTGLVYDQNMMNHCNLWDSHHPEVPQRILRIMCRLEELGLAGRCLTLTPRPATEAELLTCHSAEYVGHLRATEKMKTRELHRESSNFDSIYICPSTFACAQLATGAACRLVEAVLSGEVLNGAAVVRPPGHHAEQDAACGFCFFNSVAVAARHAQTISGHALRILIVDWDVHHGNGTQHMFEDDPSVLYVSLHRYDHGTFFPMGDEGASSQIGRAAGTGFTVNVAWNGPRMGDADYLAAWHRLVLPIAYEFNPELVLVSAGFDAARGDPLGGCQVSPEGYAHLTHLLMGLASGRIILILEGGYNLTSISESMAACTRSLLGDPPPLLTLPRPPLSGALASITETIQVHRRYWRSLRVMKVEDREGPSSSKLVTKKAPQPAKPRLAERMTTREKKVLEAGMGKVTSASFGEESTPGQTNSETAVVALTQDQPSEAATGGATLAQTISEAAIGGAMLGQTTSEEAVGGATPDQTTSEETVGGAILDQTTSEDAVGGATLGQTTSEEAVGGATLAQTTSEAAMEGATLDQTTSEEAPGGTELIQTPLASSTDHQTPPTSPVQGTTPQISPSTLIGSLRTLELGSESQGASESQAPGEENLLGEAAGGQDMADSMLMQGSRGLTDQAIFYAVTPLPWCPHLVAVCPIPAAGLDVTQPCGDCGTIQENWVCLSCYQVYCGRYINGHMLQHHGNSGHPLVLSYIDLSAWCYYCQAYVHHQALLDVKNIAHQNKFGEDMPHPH
T1 sequence (Q13547 whole entry): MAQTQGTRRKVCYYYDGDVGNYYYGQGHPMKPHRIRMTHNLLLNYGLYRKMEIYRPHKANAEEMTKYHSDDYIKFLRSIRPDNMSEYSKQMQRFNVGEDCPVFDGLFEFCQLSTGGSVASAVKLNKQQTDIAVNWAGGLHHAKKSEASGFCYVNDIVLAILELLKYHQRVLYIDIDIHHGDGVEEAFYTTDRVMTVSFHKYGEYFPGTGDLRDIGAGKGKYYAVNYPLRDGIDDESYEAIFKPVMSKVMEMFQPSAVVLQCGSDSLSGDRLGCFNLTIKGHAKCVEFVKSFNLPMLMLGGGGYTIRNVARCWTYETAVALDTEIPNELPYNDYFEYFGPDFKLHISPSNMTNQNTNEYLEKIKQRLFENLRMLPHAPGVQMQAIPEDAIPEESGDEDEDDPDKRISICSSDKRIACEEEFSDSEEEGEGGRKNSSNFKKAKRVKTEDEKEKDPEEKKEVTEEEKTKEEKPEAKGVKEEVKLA
T7 sequence (Q9UQL6 whole entry): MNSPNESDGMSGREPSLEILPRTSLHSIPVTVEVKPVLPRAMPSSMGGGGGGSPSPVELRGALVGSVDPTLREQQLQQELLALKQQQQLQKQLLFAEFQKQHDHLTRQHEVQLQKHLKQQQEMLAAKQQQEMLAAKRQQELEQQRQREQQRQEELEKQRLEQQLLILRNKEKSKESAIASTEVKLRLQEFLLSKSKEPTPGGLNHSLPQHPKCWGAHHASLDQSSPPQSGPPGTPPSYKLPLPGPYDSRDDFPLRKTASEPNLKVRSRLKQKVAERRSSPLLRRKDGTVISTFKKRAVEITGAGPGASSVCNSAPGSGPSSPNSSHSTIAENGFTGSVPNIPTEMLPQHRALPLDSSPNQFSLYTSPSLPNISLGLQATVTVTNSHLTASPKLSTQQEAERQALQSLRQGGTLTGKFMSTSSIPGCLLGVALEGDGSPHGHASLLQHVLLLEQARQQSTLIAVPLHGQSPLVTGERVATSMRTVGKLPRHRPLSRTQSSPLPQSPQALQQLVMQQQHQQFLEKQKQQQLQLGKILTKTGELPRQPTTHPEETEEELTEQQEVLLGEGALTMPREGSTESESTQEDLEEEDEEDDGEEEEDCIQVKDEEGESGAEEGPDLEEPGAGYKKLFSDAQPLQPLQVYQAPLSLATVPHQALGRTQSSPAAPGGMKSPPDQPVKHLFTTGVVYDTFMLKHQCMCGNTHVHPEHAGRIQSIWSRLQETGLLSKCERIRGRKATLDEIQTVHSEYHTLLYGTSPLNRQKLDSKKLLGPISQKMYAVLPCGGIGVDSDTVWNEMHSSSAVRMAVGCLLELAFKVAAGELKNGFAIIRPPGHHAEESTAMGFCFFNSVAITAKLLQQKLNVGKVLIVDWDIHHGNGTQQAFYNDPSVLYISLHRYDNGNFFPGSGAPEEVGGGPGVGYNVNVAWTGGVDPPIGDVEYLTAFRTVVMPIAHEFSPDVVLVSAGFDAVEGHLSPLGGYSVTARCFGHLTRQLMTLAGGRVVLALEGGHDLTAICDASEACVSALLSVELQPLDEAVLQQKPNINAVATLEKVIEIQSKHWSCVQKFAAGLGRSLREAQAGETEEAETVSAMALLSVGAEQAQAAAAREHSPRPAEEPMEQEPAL
T8 sequence (Q9BY41 whole entry): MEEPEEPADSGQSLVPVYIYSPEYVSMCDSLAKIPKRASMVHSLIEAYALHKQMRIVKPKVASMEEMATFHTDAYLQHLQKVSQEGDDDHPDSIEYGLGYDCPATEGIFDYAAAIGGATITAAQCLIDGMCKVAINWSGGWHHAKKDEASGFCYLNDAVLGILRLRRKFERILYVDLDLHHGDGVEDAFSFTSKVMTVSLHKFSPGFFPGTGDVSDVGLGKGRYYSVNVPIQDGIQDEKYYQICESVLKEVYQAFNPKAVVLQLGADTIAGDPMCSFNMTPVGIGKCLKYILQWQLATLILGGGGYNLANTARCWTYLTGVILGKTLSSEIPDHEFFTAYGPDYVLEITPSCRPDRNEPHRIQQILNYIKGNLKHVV
T4 sequence (Q92769 whole entry): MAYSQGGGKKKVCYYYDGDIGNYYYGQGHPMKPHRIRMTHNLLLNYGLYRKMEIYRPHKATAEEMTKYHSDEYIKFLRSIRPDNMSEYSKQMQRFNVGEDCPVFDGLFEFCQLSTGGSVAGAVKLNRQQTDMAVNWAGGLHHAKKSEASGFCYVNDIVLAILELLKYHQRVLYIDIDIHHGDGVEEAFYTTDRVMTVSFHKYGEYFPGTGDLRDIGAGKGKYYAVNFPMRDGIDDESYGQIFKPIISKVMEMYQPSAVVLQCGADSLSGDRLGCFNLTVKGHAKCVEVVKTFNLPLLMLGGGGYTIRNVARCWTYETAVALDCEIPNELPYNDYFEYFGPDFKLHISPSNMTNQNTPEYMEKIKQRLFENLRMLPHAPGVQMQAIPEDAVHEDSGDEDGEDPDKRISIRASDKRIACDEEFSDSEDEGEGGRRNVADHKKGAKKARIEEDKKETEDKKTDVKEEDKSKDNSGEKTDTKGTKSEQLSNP

In the case of `CN(c1ncc(C(=O)NO)cn1)C12CC3CC(CC(C3)C1)C2` [C], the IC50 in data set [1] turned out to be 0.02 µM; in [2] it was 0.025 µM; in data set [3], 3.6 µM; in [4], 0.065 µM; in data set [5], 0.024 µM; in data set [6], 0.034 µM. Besides, the IC50 worked out at 0.121 µM in [7], 0.364 µM in [8], 0.052 µM in data set [9] and 0.033 µM in data set [10].

Take `CN(Cc1ccc(C(=O)NO)cc1F)CC12CC3CC(CC(C3)C1)C2` [Example 1, 4-(((((3s)-Adamantan-1-yl)methyl)(methyl)amino)methyl)-3-fluoro-N-hydroxybenzamide]: the IC50 in data set [11] (IC50 measured by BPS) is greater than 1 µM; in data set [12] (IC50 measured by BPS) it was greater than 1 µM; in [13] (IC50 measured by BPS) it was greater than 1 µM; in data set [14] (BPS Biosciences, unit mM printed in cell) it was greater than 1000 µM; in data set [14] (IC50 measured by BPS), greater than 1 µM; in data set [15], greater than 1 µM. For the same compound, the IC50 in data set [16], in data set [17] and in [18] was greater than 1 µM each time. Also, the inhibition at 1000 µM in [14] (read-out: HDAC10 Percentage Inhibition) came out at 21%. In addition, the “Brain-penetrant?” value in [19] is listed as “+++”. The “Histone acetylation (H3K9 and H4K12)” value in data set [20] (10 μM) was “remained unaltered”. For the same compound, the “amount of cellular acetyl-α-Tubulin” value in data set [20] (ACY1215 5 μM, other compounds 10 μM) is listed as “increased”. Besides, the “binding of radiolabeled Example 2 to rat brain slices” value in data set [21] is given as “significantly reduced”. Also, the “effect on time activity curve of radiolabeled Example 2” value in data set [22] (1 mg/kg, 30-minutes post radiotracer administration) is “clear deflection of the time activity curve”. In [22] (non-radioactive compound at 1 mg/kg), the “effect on brain uptake of radiolabeled Example 2” value was “blocking of brain uptake”. Further, the T1/2 in data set [23] is 15 min. Further, the bioavailability in [24] (po) stood at 10%. Also, the half-life in [24] (male, ip, 5 mg/kg) was 4.8 min; in data set [24] (male, po, 5 mg/kg), 15 min; in data set [25], less than 10 min; in [26], less than 10 min; in data set [27] it was 19 min; in data set [28], 20 min. For the same compound, in [24] (male, po, 5 mg/kg, Cmax), the Cmax amounted to 460 nM. Further, the “Safety (DiscoverX Safety47 Panel)” value in data set [29] is reported as “No effect at 10 μM”.

As for `CN(Cc1ccc(/C=C/C(=O)NO)cc1)CC12CC3CC(CC(C3)C1)C2` [Martinostat, martinostat], the IC50 in data set [11] (setting [44]) is 0.0062 µM; in data set [12] (setting [44]) it was 0.022 µM; in data set [13] (setting [44]), 0.0071 µM; in data set [30] (setting [44]), greater than 1 µM; in data set [31] it was 0.98 µM; in data set [32] it was 0.048 µM. Besides, the IC50 in data set [33] was greater than 1 µM; in [34], greater than 1 µM; in data set [35] (setting [44]), greater than 1 µM; in [14] (setting [44]) it was 0.0089 µM; in [36] (setting [44]), greater than 1 µM; in data set [37] it was 0.24 µM. Besides, the IC50 was 0.075 µM in data set [38]; 0.0018 µM in data set [39]; greater than 1 µM in data set [40]; 0.75 µM in data set [41]; greater than 1 µM in data set [42]; 0.0012 µM in data set [15]. Moreover, the IC50 is 0.002 µM in data set [16], 0.004 µM in data set [17], 0.0003 µM in data set [18] and greater than 1 µM in data set [43]. The inhibition at 1 µM in data set [30] (at 1 μM, BPS Biosciences, read-out: HDAC4 Percentage Inhibition) was 39%; in [35] (at 1 μM, BPS Biosciences, read-out: HDAC9 Percentage Inhibition) it was 12%; in data set [36] (at 1 μM, BPS Biosciences, read-out: HDAC11 Percentage Inhibition), 17%.

The values above are taken from patent US11207431B2, “HDAC6 inhibitors and imaging agents” (The General Hospital Corporation, priority 2017, dated 2021).
